Test results reported in patent publication US11220629B2, “Two-photon fluorescent compounds for specific lipid droplet imaging in live cells and deep tissues at ultralow concentration” (THE HONG KONG UNIVERSITY OF SCIENCE AND TECHNOLOGY, priority 2018, dated 2022).
Like-named read-outs stand apart in the source and are kept apart here.

How the values were obtained:
[1] = Absorption and fluorescence (photophysical properties) in solvent and solid state; assay type: physicochemical; conditions: for Φ (fluorescence quantum yield): integrating sphere; for Solvatochromism: toluene, diethyl ether, THF, acetone, DMSO
Protocol: ^1H and ^13C NMR spectra were measured on Bruker ARX 400 NMR spectrometers using CDCl3 as the deuterated solvent. High-resolution mass spectra (HRMS) were recorded on a Finnegan MAT TSQ 7000 Mass Spectrometer System operating in a MALDI-TOF mode. UV absorption spectra were taken on a Milton Ray Spectronic 3000 array spectrophotometer. Steady-state fluorescence spectra were recorded on a Perkin Elmer LS 55 spectrometer. Fluorescence images were collected on Olympus BX 41 fluorescence microscope. Laser confocal scanning microscope images were collected on Zeiss laser scanning confocal microscope (LSM7 DUO) and analyzed using ZEN 2009 software (Carl Zeiss). Two-photon fluorescence imaging was carried out on Olympus FV 300 laser confocal microscope. In two-photon experiments, the excitation wavelengths were 860 nm from a Ti:sapphire femtosecond laser source (coherent chamelon ultra) and the incident power on samples was modified by means of an attenuator and examined with a power monitor (Coherent). A multiphoton emission filter (FF01-750; Semrock) was used to block the IR laser.
The absorption and fluorescence (FL) data of the NAP AIEgens were investigated, and corresponding spectra are shown in FIGS. 5A-5H, 6A-6E, and FIG. 7.
This phenomenon is probably due to the changes in morphology and size of the aggregates formed in the water-THF mixture with high water fractions. […] It should be noted that the FL of NAP AIEgens in high water fraction (fw>90%) increased only several-fold compared with that in THF or CH3CN (FIG. 5G), probably because of formation of loosely packed aggregates. […] The FL spectra of NAP AIEgens were further measured in different polar solvents (FIGS. 6A-6E). […] As for NAP-CF3, the reason for blue-shifted FL in the solid state was likely its twisted structure (FIG. 2E), resulting in only […] π-π interaction rather than J-aggregation (FIG. 2B). […] The FL quantum yields (QYs, Table 1) of NAP AIEgens were measured by using an integrating sphere. […] It should be pointed out that the solid FL QY of NAP-Py^+ was low, likely due to a narrow energy gap and enhanced nonradiative transitions in NIR fluorescent dyes (FIG. 7). Furthermore, longer FL lifetimes of NAP AIEgens in the solid state than those in solvents also verified that restriction of intramolecular motion (RIM) can prohibit energy dissipation via non-radiative channels and enhance the FL of NAP AIEgens (Table 1).

[2] = tested on: LDs in HeLa cells; test: Co-staining imaging with LDs dye Nile Red (CLSM); assay type: cell-based; conditions: 100 nM
Protocol: (§1) To confirm the intracellular location of NAP AIEgens in live cells, co-staining imaging experiments were performed. […] It is believed that positive-charged dyes like NAP-Py^+ can stain mitochondria due to the high negative membrane potential of mitochondria. To determine why other NAP AIEgens without positive charge locate in LDs, additional investigation was conducted.

[3] = tested on: LDs in HeLa cells; test: One-photon LDs imaging at 50 nM; assay type: cell-based; conditions: 405 nm laser intensity 12%
Protocol: One-photon imaging experiments in HeLa cells stained with 50 nM of NAP-Ph, NAP-Br, NAP-CF3, and NAP-Py were performed, and Nile Red was used as comparison. […] As far as we know, this is the lowest concentration used for LDs imaging.

[4] = tested on: HeLa cells; test: Photostability under continuous confocal laser irradiation; assay type: cell-based; conditions: continuous irradiation for 10 min; NAP AIEgens 405 nm, Nile Red 543 nm, power 12%
Protocol: FIG. 20 is a graph depicting photostability of NAP AIEgens and Nile Red in HeLa cells under continuous irradiation (irradiation conditions: for NAP AIEgens, 405 nm laser, laser power of 12%; for Nile Red, 543 nm laser, laser power of 12%).
Considering the above-mentioned excellent bioimaging characteristics of these NAP AIEgens, further experiments were performed to evaluate their photostability and cytotoxicity. The photostability of NAP AIEgens was evaluated by continuous irradiation with confocal lasers, and data was collected every second. […] Furthermore, standard MTT (3-(4,5-dimethylthiazol-2-yl)-2,5-diphenyl-2H-tetrazolium) assays were performed to evaluate the cytotoxicity of NAP AIEgens in live cells.

[5] = Two-photon absorption (TPA) cross section of aggregate suspensions, fluorescein as standard; assay type: physicochemical; conditions: aggregate suspension in H2O containing 1% CH3CN
Protocol: With fluorescein as the standard, the TPA cross sections (δ) of NAP AIEgens at different wavelengths were also measured (FIG. 8F). […] To further acquire the TPEF, NAP AIEgens in solid states were directly excited at 800 nm (intensity of about 0.35 mW).

[6] = tested on: mitochondria in HeLa cells; test: Co-staining imaging with mitochondria dye MitoTracker Deep Red FM; assay type: cell-based; conditions: NAP-Py^+ 1 μM, MTDR 100 nM
Protocol: as §1

[7] = tested on: LDs in live mice liver tissue; test: Ex vivo two-photon imaging of live mice liver tissue; conditions: 1 μM, 1 h incubation, λex 860 nm
Protocol: TP fluorescence imaging outperforms imaging in one-photon mode as a result of high penetration in tissues and low background fluorescence because of near-infrared light excitation and low excitation power. […] After incubation with NAP-CF3 (1 μM) for 1 h, bright spherical spots with TP fluorescence of NAP-CF3 were observed (FIG. 18). For the live mice liver tissue without NAP-CF3, however, only low background fluorescence was obtained. […] To investigate whether NAP-CF3 could show LDs-specific staining in deep live mice liver tissue, TP fluorescence images along the Z-axis were captured. As shown in FIGS. 19A-19F, the fluorescent signal of the spherical spot could be clearly detected at different Z-axis depths even up to 70 μm. […] These excellent TP tissue imaging properties render NAP-CF3 a tremendous tool to visualize LDs-associated biomedical application in live tissues.

[8] = THF or CH3CN (CH3CN for NAP-Py^+)
[9] = THF or CH3CN (CH3CN for NAP-Py^+), listed as NAP-Py^+

| αAIE = Φsolid/Φsolvent [1] | λem max ([1]; Solid) [nm] | τ (fluorescence lifetime) ([1]; Solid) [ns] | Φ (fluorescence quantum yield) ([1]; Solid) | Stokes shift [1, 8] [nm] | λabs max [1, 8] [nm] | λem max [1, 8] [nm] | τ (fluorescence lifetime) [1, 8] [ns] | Φ (fluorescence quantum yield) [1, 8] | Solvatochromism [1] | Fluorescence intensity change under irradiation [4] | Compound | Pearson's coefficient with Nile Red [2] | LDs staining [3] | further results |
| --- | --- | --- | --- | --- | --- | --- | --- | --- | --- | --- | --- | --- | --- | --- |
| 14.89 | 566 | 1.42 | 0.268 | 114 | 409 | 523 | <0.34 | 0.018 | positive solvatochromism | dropped to some extent | COc1c(/C=C(\C#N)c2ccc(-c3ccccc3)cc2)ccc2cc(N(C)C)ccc12 [NAP-Ph] | 0.90 | clear fluorescence | λem max ([1]; THF/water mixture, water fraction 90%, aggregates): 557 nm |
| 14.47 | 619 | 1.39 | 0.217 | 128 | 413 | 541 | <0.67 | 0.015 | positive solvatochromism | dropped to some extent | COc1c(/C=C(\C#N)c2ccc(-c3ccncc3)cc2)ccc2cc(N(C)C)ccc12 [NAP-Py] | 0.88 | clear fluorescence | Φ (fluorescence quantum yield) ([1]; Solid, listed as NAP-Py^+): 0.048; λem max ([1]; Solid, listed as NAP-Py^+): 676 nm; τ (fluorescence lifetime) ([1]; Solid, listed as NAP-Py^+): 1.32 ns; Φ (fluorescence quantum yield) [1, 9]: 0.008; Stokes shift [1, 9]: 85 nm; λabs max [1, 9]: 455 nm; λem max [1, 9]: 540 nm; τ (fluorescence lifetime) [1, 9]: <0.58 ns; αAIE = Φsolid/Φsolvent ([1]; listed as NAP-Py^+): 6.00; Solvatochromism ([1]; listed as NAP-Py^+): negative solvatochromism; TPA cross section (δ) value [5]: very large; Pearson's coefficient with MitoTracker Deep Red FM [6]: 0.89 |

More lines, now with the values behind:

| Compound | αAIE = Φsolid/Φsolvent [1] | λem max ([1]; Solid) [nm] | τ (fluorescence lifetime) ([1]; Solid) [ns] | Φ (fluorescence quantum yield) ([1]; Solid) | Stokes shift [1, 8] [nm] | λabs max [1, 8] [nm] | λem max [1, 8] [nm] | τ (fluorescence lifetime) [1, 8] [ns] | Φ (fluorescence quantum yield) [1, 8] | Solvatochromism [1] | Fluorescence intensity change under irradiation [4] | Pearson's coefficient with Nile Red [2] | LDs staining [3] | further results |
| --- | --- | --- | --- | --- | --- | --- | --- | --- | --- | --- | --- | --- | --- | --- |
| COc1c(/C=C(\C#N)c2ccc(Br)cc2)ccc2cc(N(C)C)ccc12 [NAP-Br] | 9.00 | 597 | 4.43 | 0.126 | 116 | 409 | 525 | <0.60 | 0.014 | positive solvatochromism | dropped to some extent | 0.83 | clear fluorescence | – |
| CCN(CC)c1ccc2nc3c4ccccc4c(=O)cc-3oc2c1 [Nile Red, reference compound] | – | – | – | – | – | – | – | – | – | – | drastically decreased | – | non-specific staining in cytoplasm | – |
| COc1c(/C=C(\C#N)c2cc(C(F)(F)F)cc(C(F)(F)F)c2)ccc2cc(N(C)C)ccc12 [NAP-CF3] | 18.25 | 555 | 6.29 | 0.292 | 135 | 425 | 560 | <0.67 | 0.016 | positive solvatochromism | – | 0.85 | clear fluorescence | LDs staining in live mice liver tissue [7]: excellent LDs staining property; Z-axis depth at which fluorescent signal is detected [7]: up to 70 μm |
